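Five compound concentrations were applied to cells in 96-well plates for 48 hours; endpoints were derived by simple linear interpolation of the resulting dose-response curve. TGI denotes the concentration required for complete inhibition of growth.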 Some results are limits rather than exact numbers.

Among the test systems are SN12C renal; KM12 colon; M14 melanoma; HOP-62 NSCLC; ACHN renal; COLO 205 colon; SR leukemia; OVCAR-3 ovarian; MALME-3M melanoma; SW-620 colon; OVCAR-4 ovarian; OVCAR-5 ovarian; HCC-2998 colon.
What all share (test): NCI anticancer screen, dose series, 48 h

Turning to `COc1ccc2c(c1)c(Cc1c(C)n(C)c3ccc(OC)cc13)c(C)n2C`, the TGI in the experiment on SN12C renal, in the experiment with KM12 colon, with M14 melanoma, with HOP-62 NSCLC, with ACHN renal and in the experiment on COLO 205 colon was over 100 µM each time. For the same compound, the TGI with SR leukemia, with OVCAR-3 ovarian, in the experiment on MALME-3M melanoma, with SW-620 colon, in the experiment on OVCAR-4 ovarian and with OVCAR-5 ovarian was over 100 µM throughout.

In the case of `COC(=O)c1c/c(=N\NC(=O)CC(=O)Nc2ccccc2Cl)c2ccccc2o1`, the TGI in the experiment with SN12C renal, in the experiment on KM12 colon, in the experiment with M14 melanoma, with HOP-62 NSCLC, in the experiment on ACHN renal and with COLO 205 colon was over 100 µM each time. Further, the TGI with SR leukemia, in the experiment with OVCAR-3 ovarian, in the experiment on SW-620 colon, in the experiment with OVCAR-4 ovarian, with OVCAR-5 ovarian and in the experiment on HCC-2998 colon was over 100 µM each time.

As for `Clc1ccc(C2=Nc3ccccc3SC(c3ccc(Cl)c(Cl)c3)C2)c(Cl)c1` (stereo not drawn), the TGI was 33.1 µM in the experiment on SN12C renal; 24.2 µM in the experiment with KM12 colon; 30.1 µM in the experiment on M14 melanoma; 18.2 µM in the experiment on HOP-62 NSCLC; 27.6 µM in the experiment on ACHN renal; 35 µM with COLO 205 colon. For the same compound, the TGI in the experiment with OVCAR-3 ovarian turned out to be 26.1 µM; in the experiment on MALME-3M melanoma it was 29.9 µM; with SW-620 colon, 18.9 µM; in the experiment on OVCAR-4 ovarian, 36.6 µM; with OVCAR-5 ovarian, 32.1 µM; in the experiment on HCC-2998 colon it was 27.8 µM.

For `CCOC(=O)/C(C#N)=C(O)/C(=C/c1ccccc1Cl)NC(=O)c1ccccc1`, the TGI with SN12C renal, in the experiment on KM12 colon, in the experiment on M14 melanoma, in the experiment with HOP-62 NSCLC, with ACHN renal and in the experiment with COLO 205 colon was over 100 µM in each case. For the same compound, the TGI in the experiment with OVCAR-3 ovarian was over 100 µM; with MALME-3M melanoma, over 100 µM; in the experiment on SW-620 colon, 52.2 µM; with OVCAR-4 ovarian, over 100 µM; in the experiment on OVCAR-5 ovarian it was over 100 µM; in the experiment with HCC-2998 colon, over 100 µM.

For `c1ccc(C2=NN(c3ccccc3)C3(S2)SC(c2ccccc2)(c2ccccc2)c2ccccc23)cc1` (stereo not drawn), the TGI in the experiment on SN12C renal, in the experiment with KM12 colon, in the experiment with M14 melanoma, in the experiment with HOP-62 NSCLC, in the experiment on ACHN renal and in the experiment with COLO 205 colon was over 100 µM throughout. In addition, the TGI with OVCAR-3 ovarian, in the experiment with MALME-3M melanoma, with SW-620 colon, in the experiment with OVCAR-4 ovarian, in the experiment with OVCAR-5 ovarian and in the experiment with HCC-2998 colon was over 100 µM in each case.

Turning to `CC(=NNC(=S)Nc1ccccc1C)c1cccc(C(C)=NNC(=S)Nc2ccccc2C)n1`, the TGI was over 100 µM in the experiment with SN12C renal; over 100 µM in the experiment with KM12 colon; over 100 µM with M14 melanoma; over 100 µM in the experiment with HOP-62 NSCLC; 59.8 µM in the experiment with ACHN renal; over 100 µM in the experiment with COLO 205 colon. The TGI in the experiment on SR leukemia is 12 µM; with MALME-3M melanoma it was 76.9 µM; in the experiment with SW-620 colon it was over 100 µM; in the experiment on OVCAR-4 ovarian it was 91.7 µM; with OVCAR-5 ovarian, over 100 µM; in the experiment with HCC-2998 colon, over 100 µM.

Take `O=S(=O)(CC1=NC2C=CC=CC2N=C1)NCc1ccccc1` (stereo not drawn): the TGI in the experiment with SN12C renal, in the experiment with KM12 colon, in the experiment with M14 melanoma, in the experiment on HOP-62 NSCLC, in the experiment on ACHN renal and in the experiment with COLO 205 colon was over 100 µM in each case. Also, the TGI in the experiment on OVCAR-3 ovarian, with MALME-3M melanoma, in the experiment with SW-620 colon, with OVCAR-4 ovarian, with OVCAR-5 ovarian and in the experiment with HCC-2998 colon was over 100 µM in each case.

Consider `CC(=O)Nc1ccc(-c2nnc(SCC(=O)Nc3ccccc3Cl)o2)cc1`, for which the TGI with SN12C renal, with KM12 colon, in the experiment on M14 melanoma, in the experiment with HOP-62 NSCLC, in the experiment on ACHN renal and with COLO 205 colon was over 100 µM in each case. Also, the TGI with OVCAR-3 ovarian, with MALME-3M melanoma, with SW-620 colon, in the experiment on OVCAR-4 ovarian, with OVCAR-5 ovarian and with HCC-2998 colon was over 100 µM each time.

For the compound `Cc1ccc2sc3cc(=O)cc(C)c-3nc2c1`, the TGI in the experiment on SN12C renal, in the experiment on KM12 colon, in the experiment with M14 melanoma, in the experiment on HOP-62 NSCLC, in the experiment on ACHN renal and in the experiment on COLO 205 colon was over 100 µM in each case. Further, the TGI is over 100 µM in the experiment with SR leukemia; over 100 µM in the experiment on OVCAR-3 ovarian; over 100 µM in the experiment with SW-620 colon; 52.4 µM in the experiment on OVCAR-4 ovarian; over 100 µM in the experiment on OVCAR-5 ovarian; over 100 µM in the experiment with HCC-2998 colon.

Consider `COc1ccc2c(OC)c3ccoc3nc2c1O`, for which the TGI in the experiment with SN12C renal, with KM12 colon, with M14 melanoma, in the experiment on HOP-62 NSCLC, in the experiment on ACHN renal and in the experiment with COLO 205 colon was over 100 µM in each case. Moreover, the TGI in the experiment with OVCAR-3 ovarian, in the experiment on MALME-3M melanoma, with SW-620 colon, in the experiment on OVCAR-4 ovarian, with OVCAR-5 ovarian and in the experiment with HCC-2998 colon was over 100 µM throughout.

For the compound `COc1ccc(/C=C2/C(=O)N(C(=O)c3ccc(Cl)cc3)N=C2C)cc1OC`, the TGI in the experiment with SN12C renal, in the experiment on KM12 colon, with M14 melanoma, with HOP-62 NSCLC, in the experiment with ACHN renal and in the experiment on COLO 205 colon was over 100 µM in each case. For the same compound, the TGI with OVCAR-3 ovarian, with MALME-3M melanoma, in the experiment with SW-620 colon, in the experiment with OVCAR-4 ovarian, in the experiment with OVCAR-5 ovarian and with HCC-2998 colon was over 100 µM each time.

Regarding `COc1cc(C2c3cccc4cccc(c34)C3CCC(=O)N32)cc(O)c1O` (stereo not drawn), the TGI with SN12C renal, in the experiment with KM12 colon, in the experiment with M14 melanoma, with HOP-62 NSCLC, with ACHN renal and in the experiment on COLO 205 colon was over 50 µM each time. For the same compound, the TGI is 29.5 µM in the experiment with SR leukemia; over 50 µM in the experiment on OVCAR-3 ovarian; over 50 µM with SW-620 colon; 45 µM in the experiment on OVCAR-4 ovarian; over 50 µM in the experiment with OVCAR-5 ovarian.

The values are drawn from PubChem BioAssay (NCI).
